# According to ChEMBL document CHEMBL1909046, “DrugMatrix in vitro pharmacology data”:
# Molecular target: Voltage-gated inwardly rectifying potassium channel KCNH2 (Homo sapiens, UniProt Q12809)
# Sequence (Q12809 whole entry): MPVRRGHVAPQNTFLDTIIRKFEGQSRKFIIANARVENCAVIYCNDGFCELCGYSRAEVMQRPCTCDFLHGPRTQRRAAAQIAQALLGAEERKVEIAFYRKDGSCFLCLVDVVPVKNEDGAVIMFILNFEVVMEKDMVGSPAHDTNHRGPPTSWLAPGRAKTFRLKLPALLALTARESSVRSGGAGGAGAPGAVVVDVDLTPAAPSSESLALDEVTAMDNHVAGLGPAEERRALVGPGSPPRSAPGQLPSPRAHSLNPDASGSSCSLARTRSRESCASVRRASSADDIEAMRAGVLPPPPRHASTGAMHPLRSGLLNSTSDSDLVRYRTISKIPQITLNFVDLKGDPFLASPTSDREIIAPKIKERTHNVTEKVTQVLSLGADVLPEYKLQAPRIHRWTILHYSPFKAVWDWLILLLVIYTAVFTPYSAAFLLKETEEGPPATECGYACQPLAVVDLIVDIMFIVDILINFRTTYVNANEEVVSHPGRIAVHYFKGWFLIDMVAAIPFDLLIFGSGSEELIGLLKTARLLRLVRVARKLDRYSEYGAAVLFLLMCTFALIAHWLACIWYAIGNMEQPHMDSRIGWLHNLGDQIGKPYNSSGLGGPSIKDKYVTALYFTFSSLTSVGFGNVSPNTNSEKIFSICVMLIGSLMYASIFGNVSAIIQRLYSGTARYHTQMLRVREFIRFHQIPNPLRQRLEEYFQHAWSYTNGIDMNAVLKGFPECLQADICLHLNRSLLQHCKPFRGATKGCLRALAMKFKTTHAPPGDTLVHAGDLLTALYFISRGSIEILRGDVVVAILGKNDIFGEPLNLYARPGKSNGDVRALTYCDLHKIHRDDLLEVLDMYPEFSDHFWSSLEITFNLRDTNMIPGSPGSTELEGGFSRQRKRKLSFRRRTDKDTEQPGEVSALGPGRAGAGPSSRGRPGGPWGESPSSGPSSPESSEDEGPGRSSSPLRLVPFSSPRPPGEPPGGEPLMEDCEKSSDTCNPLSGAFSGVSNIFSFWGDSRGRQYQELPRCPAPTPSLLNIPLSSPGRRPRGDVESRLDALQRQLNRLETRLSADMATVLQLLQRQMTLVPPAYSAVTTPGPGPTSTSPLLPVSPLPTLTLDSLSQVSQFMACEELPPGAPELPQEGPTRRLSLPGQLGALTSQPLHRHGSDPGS
compound,measurement,value
Cc1cc2c(s1)Nc1ccccc1N=C2N1CCN(C)CC1 [OLANZAPINE],IC50,100 µM
